Data: US20260183273A1, “N,N-dialkyl-4-(2-ethylindan-2-yl)-1H-imidazole-1-carboxamides and related compounds for treatment of neurodegenerative diseases” (priority 2023, published 2026)
Where two headings read alike, the source gives them in different places.

Legend:
[1] = Hydrolysis in plasma (LC-MS); format: in vitro ADME, human
Protocol: Samples were analysed by LC-MS system, which included Thermo Scientific UltiMate 3000 UHPLC liquid chromatograph and Thermo Scientific Exactive Plus Hybrid Quadrupole-Orbitrap mass spectrometer. The general method used a Waters Acquity UPLC® BEH C18 column (2.1×50 mm, 1.7 μm) and Waters Vanguard UPLC® BEH C18 precolumn (2.1×5 mm, 1.7 μm), thermostated at 40° C., with: injection volume, 1 μL; flow rate, 0.4 mL/min; autosampler temperature: 15° C., detector Full MS-SIM (runtime 1.5-3 min, positive mode, resolution: 70 000; AGC target: 3e^6; maximum IT: 200 ms; scan range: 200-300 m/z); mobile phase A: 0.1% formic acid in MQ water; B: 0.1% formic acid in acetonitrile. Gradient: 0-3 min, 20-75% B; 3-3.1 min 75-95% B; 3.1-4 min 95% B; 4-4.1 min 95-20% B; 4.1-6 min 20% B. Processing: ICIS peak detection algorithm, analyte 6—expected retention time: 1.87 min, 30 s window, mass range 213.14; analyte 7—expected retention time: 2.40 min, 30 s window, mass range 284.18.
To construct the calibration curves, the highest concentration (800 nM) stock solution was prepared in plasma, and serially diluted with plasma to different compound concentrations (8, 20, 40, 60, 80, 200, 400, 600, 800 nM). 50 μL of the respective biological sample were diluted with 200 μL MeOH, vortexed, centrifuged at 4° C. and 5000 rpm for 10 min, the supernatant transferred to HPLC vials with inserts, and analysed. 5 replicates were injected to check the precision, and to ascertain the matrix effects in plasma, 0.5 μL of […] 6 was diluted with 49.5 μL of either plasma or MQ water. […] To monitor the progress of 7 hydrolysis in plasma, 1 vol. % of 7.5 μM 7 stock solution was mixed with plasma, 50 μL aliquots were drawn successively after 1, 5, and 60 min and analysed as described above. In a control experiment, the plasma used was pretreated for 5 min with 1 mM ethopropazine to inhibit BChE, then 7 was added, and the above procedure followed.
(§1) As both 7 and BChE were being depleted, near the final timepoint the reaction rate slowed down considerably. […] 7 is readily hydrolysed in contact with plasma BChE—therefore, after an in vivo application (either parenteral or per os), adrenergic-active moiety 6 should be liberated in the bloodstream, permeate the blood-brain barrier, and reach the site of action in the central nervous system.

[2] = Non-enzymatic hydrolysis (aqueous stability); format: physicochemical; settings: compared with hydrolysis in plasma
Protocol: Reactions were monitored using analytical thin-layer chromatography (TLC) on silica gel 60 F254 Al plates. Developed plates were inspected under UV light and, if necessary, visualized with ninhydrin, vanillin/sulfuric acid, Dragendorff's or potassium permanganate stains. Melting points were determined with Büchi 535 Melting Point Apparatus (uncorrected). Nuclear magnetic resonance spectra were recorded on a Bruker Avance III 400 MHz spectrometer at 400 MHz for ^1H, 100 MHz for ^13C, and 376 MHz for ^19F nucleus, respectively, using CDCl3 with TMS as the internal standard as solvent. […] Mass spectra were recorded on Thermo Scientific Q Executive Plus LC-MS/MS spectrometer and IR spectra on Thermo Nicolet FT-IR spectrophotometer. […] The purities of the tested compounds were established to be ≥95%, as determined by UPLC.
as §1

[3] = molecular target: T1, human α2A adrenoreceptor from CHO cells (Homo sapiens, UniProt P08913); test: α2A binding assay (Eurofins), antagonist radioligand [3H]RX821002
T1 construct: host or cells: CHO cells
T1 sequence (P08913 1-465): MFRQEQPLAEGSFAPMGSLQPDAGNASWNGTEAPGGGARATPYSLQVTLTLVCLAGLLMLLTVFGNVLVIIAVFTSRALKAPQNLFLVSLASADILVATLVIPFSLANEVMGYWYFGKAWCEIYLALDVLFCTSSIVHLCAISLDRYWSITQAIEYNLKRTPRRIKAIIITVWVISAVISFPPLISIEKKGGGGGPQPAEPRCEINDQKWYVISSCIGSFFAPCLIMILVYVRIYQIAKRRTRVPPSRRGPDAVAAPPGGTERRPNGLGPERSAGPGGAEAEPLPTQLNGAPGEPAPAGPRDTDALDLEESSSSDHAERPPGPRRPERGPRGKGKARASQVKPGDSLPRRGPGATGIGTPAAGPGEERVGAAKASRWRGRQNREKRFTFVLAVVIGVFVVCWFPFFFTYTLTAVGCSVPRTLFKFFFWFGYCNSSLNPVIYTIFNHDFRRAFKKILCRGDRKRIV
Protocol: In each experiment the respective reference compound (yohimbine) was tested concurrently with the test compounds, and the data were compared with historical values determined at Eurofins. The experiment was accepted in accordance with Eurofins validation Standard Operating Procedure. Inhibition above 50% is considered to represent significant effects of the test compounds. The inhibition constants (Ki) were calculated using the Cheng-Prusoff equation.

hBChE = hBChE (Homo sapiens, UniProt P06276); test: Inhibition of cholinesterases, method of Ellman (hBChE); format: biochemical; settings: for hBChE time-dependency observed: yes/no: pre-incubation time varied (1, 5, 15, 30 or 60 min); for hBChE RA-residual activity: mean ± standard deviation, test concentration not given
Protocol: (§2) For time-dependency measurements, the pre-incubation time was varied (1 min, 5 min, 15 min, 30 min or 60 min). The reactions were started by the addition of the substrate (final concentration, 500 μM butyrylthiocholine iodide or acetylthiocholine iodide for hBChE and hAChE, respectively). The final content of DMSO was always 1%. […] The initial velocities in the presence (vi) and absence (vo) of the test compounds were calculated. The inhibitory potencies were expressed as the residual activities, according to RA=(vi−b)/(vo−b), where b is the blank value using phosphate buffer without ChEs. For IC50 determinations, at least seven different concentrations for each compound were used. The IC50 values were obtained by plotting the residual ChE activities against the applied inhibitor concentrations, with the experimental data fitted to a four-parameter logistic function (GraphPad Prism 9.4). Tacrine and donepezil were used as positive controls.

hAChE = hAChE (Homo sapiens, UniProt P22303); test: biochemical; format: biochemical
Protocol: as §2

[4] = control plasma with 1 mM ethopropazine, nominal 75 nM 7, timepoint 60 min
[5] = hydrolysis of 7 in human plasma, nominal 75 nM, timepoint 1 min
[6] = hydrolysis of 7 in human plasma, nominal 75 nM, timepoint 5 min
[7] = hydrolysis of 7 in human plasma, nominal 75 nM, timepoint 60 min
[8] = 5 min preincubation, read-out: hBChE IC50 ± SEM
[9] = pre-incubation time varied (1, 5, 15, 30 or 60 min)

Sequence of hBChE (P06276 29-602): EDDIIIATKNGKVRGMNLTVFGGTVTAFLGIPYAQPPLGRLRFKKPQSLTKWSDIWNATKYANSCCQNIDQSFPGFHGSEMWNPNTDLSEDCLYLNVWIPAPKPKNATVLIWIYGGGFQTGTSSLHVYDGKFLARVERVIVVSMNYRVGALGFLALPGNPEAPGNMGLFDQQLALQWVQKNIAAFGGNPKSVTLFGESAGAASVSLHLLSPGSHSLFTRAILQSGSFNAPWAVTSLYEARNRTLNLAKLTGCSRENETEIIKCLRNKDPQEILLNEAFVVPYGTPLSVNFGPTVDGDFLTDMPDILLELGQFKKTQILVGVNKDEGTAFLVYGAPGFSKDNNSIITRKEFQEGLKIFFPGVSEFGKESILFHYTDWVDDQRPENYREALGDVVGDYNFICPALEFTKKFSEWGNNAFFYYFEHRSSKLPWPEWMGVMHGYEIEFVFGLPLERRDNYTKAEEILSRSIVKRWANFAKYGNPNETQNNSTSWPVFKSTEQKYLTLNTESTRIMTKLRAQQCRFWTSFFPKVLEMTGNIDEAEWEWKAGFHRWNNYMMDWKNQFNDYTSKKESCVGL
Sequence of hAChE (P22303 32-614): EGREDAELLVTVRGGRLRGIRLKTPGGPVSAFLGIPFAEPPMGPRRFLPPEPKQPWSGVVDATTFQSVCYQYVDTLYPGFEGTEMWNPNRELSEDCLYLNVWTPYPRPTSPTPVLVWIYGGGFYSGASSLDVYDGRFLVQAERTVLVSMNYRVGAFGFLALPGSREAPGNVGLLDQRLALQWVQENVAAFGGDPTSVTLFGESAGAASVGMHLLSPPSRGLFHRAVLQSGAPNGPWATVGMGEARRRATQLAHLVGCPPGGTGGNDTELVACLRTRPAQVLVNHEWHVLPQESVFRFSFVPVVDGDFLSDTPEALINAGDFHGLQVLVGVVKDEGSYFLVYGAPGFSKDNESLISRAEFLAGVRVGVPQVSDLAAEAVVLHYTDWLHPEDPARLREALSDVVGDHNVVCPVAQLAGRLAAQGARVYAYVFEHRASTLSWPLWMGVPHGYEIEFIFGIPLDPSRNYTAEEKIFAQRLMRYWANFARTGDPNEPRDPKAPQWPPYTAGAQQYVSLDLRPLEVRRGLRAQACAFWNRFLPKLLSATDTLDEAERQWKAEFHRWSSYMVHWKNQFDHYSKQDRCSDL

SMILES: CCC1(c2cnc[nH]2)Cc2ccccc2C1 [Compound 6, 4-(2-ethylindan-2-yl)-1H-imidazole]
- concentration of analyte [1, 4]: 9.816 nM
- concentration of analyte [1, 5]: 15.911 nM
- concentration of analyte [1, 6]: 29.071 nM
- concentration of analyte [1, 7]: 65.375 nM

SMILES: CCC1(c2cn(C(=O)N(C)C)cn2)Cc2ccccc2C1 [Compound 7, 4-(2-Ethylindan-2-yl)-N,N-dimethyl-1H-imidazole-1-carboxamide]
- non-enzymatic hydrolysis rate [2]: several orders of magnitude slower
- inhibition at 1 µM [3]: 6%
- IC50 (hBChE; [8]): 12.6 ± 2 nM
- hBChE time-dependency observed: yes/no (hBChE): yes
- concentration of analyte ([1]; control plasma with 1 mM ethopropazine, nominal 75 nM 7, timepoint 1 min): 74.477 nM
- concentration of analyte ([1]; control plasma with 1 mM ethopropazine, nominal 75 nM 7, timepoint 5 min): 72.158 nM
- concentration of analyte [1, 4]: 71.131 nM
- concentration of analyte [1, 5]: 66.508 nM
- concentration of analyte [1, 6]: 55.665 nM
- concentration of analyte [1, 7]: 22.431 nM
- hAChE time-dependency observed: yes/no (hAChE): 30507 ± 6304 yes
- IC50 (hAChE; read-out: hAChE IC50 ± SEM): 30500 ± 6300 nM

SMILES: CCN(CC)C(=O)n1cnc(C2(CC)Cc3ccccc3C2)c1 [Compound 8, N,N-diethyl-4-(2-ethylindan-2-yl)-1H-imidazole-1-carboxamide]
- IC50 (hBChE; [8]): 1460 ± 218 nM
- hBChE time-dependency observed: yes/no (hBChE): yes
- hAChE IC50 ± SEM (hAChE): Not active (66.8 ± 4.7%) no
- hAChE RA-residual activity (hAChE): Not active (66.8 ± 4.7%) no

SMILES: CCC1(c2cn(C(=O)N(C)C)c[n+]2C)Cc2ccccc2C1 [Compound 9, 1-(Dimethylcarbamoyl)-4-(2-ethylindan-2-yl)-3-methyl-1H-imidazol-3-ium trifluoromethanesulfonate]
- IC50 (hBChE): 4.18 ± 0.77 nM
- hBChE time-dependency observed: yes/no (hBChE): yes
- IC50 (hAChE): 431 ± 113 nM
- hAChE time-dependency observed: yes/no (hAChE; [9]): yes

SMILES: CCC1(c2cn[nH]n2)Cc2ccccc2C1 [Compound 13, 4-(2-Ethylindan-2-yl)-2H-1,2,3-triazole]
- inhibition at 1 µM [3]: 6.1%
- hBChE IC50 ± SEM (hBChE; 5 min preincubation): Not active
- hBChE RA-residual activity (hBChE; 5 min preincubation): 60.3 ± 1.0%
- hAChE IC50 ± SEM (hAChE): Not active (87.3 ± 7.5%)
- hAChE RA-residual activity (hAChE): Not active (87.3 ± 7.5%)

SMILES: CCC1(c2cnn(C(=O)N(C)C)n2)Cc2ccccc2C1 [Compound 14, 4-(2-Ethylindan-2-yl)-N,N-dimethyl-2H-1,2,3-triazole-2-carboxamide]
- IC50 (hBChE; [8]): 2.39 ± 0.63 nM
- hBChE time-dependency observed: yes/no (hBChE): yes
- hAChE time-dependency observed: yes/no (hAChE): 180.9 ± 35.5 yes
- IC50 (hAChE; read-out: hAChE IC50 ± SEM): 181 ± 35.5 nM

SMILES: CCC1(c2nc[nH]n2)Cc2ccccc2C1 [Compound 15, 3-(2-Ethylindan-2-yl)-1H-1,2,4-triazole]
- inhibition at 1 µM [3]: 2.1%
- hBChE IC50 ± SEM (hBChE; 5 min preincubation): Not active
- hBChE RA-residual activity (hBChE; 5 min preincubation): 95.9 ± 6.8%
- hAChE IC50 ± SEM (hAChE): Not active (79.8 ± 7.0%)
- hAChE RA-residual activity (hAChE): Not active (79.8 ± 7.0%)

SMILES: CCC1(c2ncn(C(=O)N(C)C)n2)Cc2ccccc2C1 [Compound 16, 3-(2-Ethylindan-2-yl)-N,N-dimethyl-1H-1,2,4-triazole-1-carboxamide]
- IC50 (hBChE; [8]): 4.12 ± 0.35 nM
- hBChE time-dependency observed: yes/no (hBChE): yes
- IC50 (hAChE; read-out: hAChE IC50 ± SEM): 1980 ± 239 nM

SMILES: CCC1(c2cn(C(=O)N(C)Cc3ccccc3)cn2)Cc2ccccc2C1 [Compound 17, N-benzyl-4-(2-ethylindan-2-yl)-N-methyl-1H-imidazole-1-carboxamide]
- IC50 (hBChE; [8]): 95.7 ± 17.1 nM
- hBChE time-dependency observed: yes/no (hBChE): yes
- hAChE RA-residual activity (hAChE): 46.4 ± 3.3% yes

SMILES: CCC1(c2cn(C(=O)N3CCCCC3)cn2)Cc2ccccc2C1 [Compound 18, (4-(2-ethylindan-2-yl)-1H-imidazol-1-yl)(piperidin-1-yl)methanone]
- IC50 (hBChE; [8]): 4.8 ± 0.944 nM
- hBChE time-dependency observed: yes/no (hBChE): yes
- IC50 (hAChE; read-out: hAChE IC50 ± SEM): 5180 ± 1620 nM

SMILES: [2H]C([2H])([2H])C([2H])([2H])C1(c2cn(C(=O)N(CC)CC)cn2)Cc2ccccc2C1 [Compound 21, N,N-diethyl-4-(2-(ethyl-d5)indan-2-yl)-1H-imidazole-1-carboxamide]
- IC50 (hBChE; [8]): 7830 ± 1320 nM
- hBChE time-dependency observed: yes/no (hBChE): yes
- hAChE RA-residual activity (hAChE; 5 min preincubation, mean ± standard deviation, test concentration not given): 58.9 ± 2.3%
- hAChE time-dependency observed: yes/no (hAChE; [9]): yes
